From article PMC7940609, “Hyperproduction of 3-hydroxypropionate by Halomonas bluephagenesis” (Nature Communications, 2021)

What was measured:
[1] = target: T1, DhaTKp (Klebsiella pneumoniae, UniProt Q7WRJ3); assay: specific activity, NADH formation; type: biochemical; conditions: 150 mM 1,3-propanediol, 2 mM NAD+, 100 mM potassium carbonate pH 9.0, 30 mM ammonium sulfate, 37 °C
T1 construct: gene dhaT; C-terminal His-tag (plasmid p95), expressed in and purified from H. bluephagenesis TDΔdddA
T1 sequence (Q7WRJ3 1-387): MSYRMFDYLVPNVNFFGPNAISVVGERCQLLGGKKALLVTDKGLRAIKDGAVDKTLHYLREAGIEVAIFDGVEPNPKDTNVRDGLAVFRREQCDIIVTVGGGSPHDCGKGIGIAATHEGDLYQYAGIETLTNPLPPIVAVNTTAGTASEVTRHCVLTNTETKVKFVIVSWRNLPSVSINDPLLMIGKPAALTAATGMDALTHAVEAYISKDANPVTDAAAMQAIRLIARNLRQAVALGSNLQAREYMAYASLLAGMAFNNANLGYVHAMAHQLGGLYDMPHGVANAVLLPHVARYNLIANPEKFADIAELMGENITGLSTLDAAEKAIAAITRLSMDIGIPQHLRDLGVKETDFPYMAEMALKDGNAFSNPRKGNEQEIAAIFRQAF

[2] = target: T2, DhaTPp (Pseudomonas putida, UniProt Q88J46); assay: specific activity, NADH formation; type: biochemical; conditions: 150 mM 1,3-propanediol, 2 mM NAD+, 100 mM potassium carbonate pH 9.0, 30 mM ammonium sulfate, 37 °C
T2 construct: gene dhaT; C-terminal His-tag (plasmid p92), expressed in and purified from H. bluephagenesis TDΔdddA
T2 sequence (Q88J46 1-394): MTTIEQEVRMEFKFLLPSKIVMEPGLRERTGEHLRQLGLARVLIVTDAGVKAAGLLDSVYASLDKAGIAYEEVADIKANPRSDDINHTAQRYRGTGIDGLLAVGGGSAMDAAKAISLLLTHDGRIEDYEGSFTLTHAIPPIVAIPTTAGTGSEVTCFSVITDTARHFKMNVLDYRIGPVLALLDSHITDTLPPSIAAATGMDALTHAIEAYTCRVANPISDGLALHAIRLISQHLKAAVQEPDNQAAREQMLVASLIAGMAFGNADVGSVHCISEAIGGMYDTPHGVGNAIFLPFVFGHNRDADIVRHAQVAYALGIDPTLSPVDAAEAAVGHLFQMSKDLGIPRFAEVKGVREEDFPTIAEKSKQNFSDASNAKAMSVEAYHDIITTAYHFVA

[3] = target: T3, AldDPp (Pseudomonas putida, UniProt Q88QE9); assay: specific activity, NADH formation; type: biochemical; conditions: 2.0 mM 3HPA, 2.0 mM NAD+, 100 mM potassium phosphate pH 8.0, 1 mM DTT, 37 °C
T3 construct: gene aldB-I; N-terminal His-tag (plasmid p98), expressed in and purified from H. bluephagenesis TDΔdddA
T3 sequence (Q88QE9 1-506): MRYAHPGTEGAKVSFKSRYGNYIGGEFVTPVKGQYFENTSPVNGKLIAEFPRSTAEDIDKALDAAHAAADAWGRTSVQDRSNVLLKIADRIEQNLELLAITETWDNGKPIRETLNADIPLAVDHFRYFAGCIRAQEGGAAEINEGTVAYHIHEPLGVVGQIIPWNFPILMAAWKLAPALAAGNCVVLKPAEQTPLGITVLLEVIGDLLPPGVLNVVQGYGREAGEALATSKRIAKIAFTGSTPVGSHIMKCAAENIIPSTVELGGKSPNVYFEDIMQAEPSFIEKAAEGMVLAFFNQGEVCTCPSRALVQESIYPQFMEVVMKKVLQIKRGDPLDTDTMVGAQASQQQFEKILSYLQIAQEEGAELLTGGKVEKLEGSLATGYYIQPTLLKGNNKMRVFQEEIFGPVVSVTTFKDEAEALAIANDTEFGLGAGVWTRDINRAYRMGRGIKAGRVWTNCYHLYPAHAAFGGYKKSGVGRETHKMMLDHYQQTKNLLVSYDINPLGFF

[4] = target: T4, AldH (Escherichia coli, UniProt P23883); assay: specific activity, NADH formation; type: biochemical; conditions: 2.0 mM 3HPA, 2.0 mM NAD+, 100 mM potassium phosphate pH 8.0, 1 mM DTT, 37 °C
T4 construct: gene puuC; N-terminal His-tag (plasmid p99), expressed in and purified from H. bluephagenesis TDΔdddA
T4 sequence (P23883 1-495): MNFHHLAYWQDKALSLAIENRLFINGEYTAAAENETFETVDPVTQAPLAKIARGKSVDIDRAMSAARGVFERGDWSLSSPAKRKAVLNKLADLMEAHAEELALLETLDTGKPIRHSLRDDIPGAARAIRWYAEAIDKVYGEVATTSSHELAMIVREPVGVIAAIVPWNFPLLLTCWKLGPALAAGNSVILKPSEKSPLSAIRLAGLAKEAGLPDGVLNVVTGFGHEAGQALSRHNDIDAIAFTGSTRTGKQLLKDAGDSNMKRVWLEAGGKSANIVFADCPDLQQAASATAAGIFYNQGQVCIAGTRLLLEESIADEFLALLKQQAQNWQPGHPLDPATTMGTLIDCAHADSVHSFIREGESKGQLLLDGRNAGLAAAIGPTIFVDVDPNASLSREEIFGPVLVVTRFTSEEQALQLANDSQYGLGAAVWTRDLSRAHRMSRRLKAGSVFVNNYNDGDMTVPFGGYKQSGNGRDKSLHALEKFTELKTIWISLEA

[5] = target: T5, PuuC (Klebsiella pneumoniae, UniProt A0A378BL98); assay: specific activity, NADH formation; type: biochemical; conditions: 2.0 mM 3HPA, 2.0 mM NAD+, 100 mM potassium phosphate pH 8.0, 1 mM DTT, 37 °C
T5 construct: N-terminal His-tag (plasmid p100), expressed in and purified from H. bluephagenesis TDΔdddA
T5 sequence (A0A378BL98 1-495): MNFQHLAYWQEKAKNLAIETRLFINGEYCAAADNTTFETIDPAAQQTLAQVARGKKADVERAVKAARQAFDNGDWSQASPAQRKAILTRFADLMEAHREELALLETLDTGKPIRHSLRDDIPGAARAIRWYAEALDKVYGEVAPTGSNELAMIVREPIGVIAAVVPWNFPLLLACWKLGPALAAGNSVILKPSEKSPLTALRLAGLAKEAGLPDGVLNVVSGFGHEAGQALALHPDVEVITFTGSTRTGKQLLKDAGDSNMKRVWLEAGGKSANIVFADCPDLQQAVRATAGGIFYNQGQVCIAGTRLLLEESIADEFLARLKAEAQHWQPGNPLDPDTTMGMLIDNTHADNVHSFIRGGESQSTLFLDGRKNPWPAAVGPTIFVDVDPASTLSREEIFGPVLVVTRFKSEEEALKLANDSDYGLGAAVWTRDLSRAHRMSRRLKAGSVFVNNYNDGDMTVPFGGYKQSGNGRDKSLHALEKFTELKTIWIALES

[6] = substrate: O=CCCO; assay: purified protein; type: biochemical, Halomonas sp. TD01; conditions: 2 mM NAD+, 50 mM potassium phosphate pH 8.0, 1.0 mM DTT, 37 °C

OCCCO [1,3-propanediol]
specific activity, NADH formation [1]: higher than the alcohol dehydrogenase of P. putida DhaTPp and K. pneumoniae DhaTKp | specific activity, NADH formation [2]: higher than the alcohol dehydrogenase of P. putida DhaTPp and K. pneumoniae DhaTKp

O=CCCO [3HPA]
specific activity, NADH formation [3]: four different aldehyde dehydrogenases (AldDHb, AldDPp, AldH, and PuuC) were analyzed | specific activity, NADH formation [4]: four different aldehyde dehydrogenases (AldDHb, AldDPp, AldH, and PuuC) were analyzed | specific activity, NADH formation [5]: four different aldehyde dehydrogenases (AldDHb, AldDPp, AldH, and PuuC) were analyzed

B1: AldDHb (Halomonas sp. TD01) (protein)
chain: MIYANPGDAGSVVSFEKRFGNYIGGEFVPPVNGQYFDNISPVNGQVFCEIPRSSAEDIEKALDAAHKAAPAWGKTSVQERSNILLKIADRLEQNLEMLAVAETWDNGKAVRETLNADIPLAVDHFRYFAGCLRSQEGTAADIDANTVAYHFHEPLGVVGQIIPWNFPILMAAWKLGPALAAGNCVILKPAEQTPASILKVMEVIGDLLPPGVLNVVNGFGAEAGQALATSKRIAKIAFTGSTPVGSHILKCAAENIIPSTVELGGKSPNIYFADIMNAEPTFIDKAVEGLVLAFFNQGEVCTCPSRALIQESMYDEFMAKVVERTKTIKRGNPLDTDVQVGAQASQEQFDKIMSYMDIARDEGAEFLAGGDKESLDDSINGGYYIQPTLLKGNNKMRVFQEEIFGPVVAVTTFKDEEEALAIANDTEFGLGAGVWSRDINVAFRMGRGIQAGRVWTNCYHQYPAHAAFGGYKKSGVGRETHKVALEHYQQTKNLLVSYDINPLGFF
notes: 506 residues, C-terminal His-tag (plasmid p91), expressed in and purified from H. bluephagenesis TDΔdddA
Km [6]: 50 ± 2 µM | kcat [6]: 3.38 ± 0.09 s⁻¹ | kcat/Km [6]: 67400 ± 797 M⁻¹ s⁻¹
